Measurements: patent US20240285769A1, “INJECTABLE, BIODEGRADABLE AND REMOVABLE POLYMER BASED DRUG SUSPENSION FOR ULTRA-LONG-ACTING DRUG DELIVERY” (The University of North Carolina at Chapel Hill, priority 2021, published 2024)
Where a name gives a salt, the structure may show the parent alone. Each block holds one molecule with its values, some of them ahead of it.

What was measured:
[1] = Preparation and optimization of drug suspension formulations; format: physicochemical; conditions: for depot formation when injected into aqueous release medium: PBS, pH 7.4, 37° C.
Description: The polymer based drug suspensions were prepared by: (1) Placebo formulation: 50:50 Poly(DL-lactide-co-glycolide) (PLGA), MW 10 or 27 kDa, or Poly(lactic acid) (PLA) MW 10 kDa, was mixed with N-methyl-2-pyrrolidone (NMP) or a combination of NMP and DMSO (e.g. 1:1 v/v) at various weight ratios of PLGA/solvent (w/w) and allowed to dissolve by continuous mixing at room temperature (Placebo). […] (2) Drug loading: […] (3) Depot formation: A sample from the resulting drug-loaded suspension formulation (30 μL, 30±3 mg) was injected into 200 mL of 0.01 M PBS pH 7.4 using a pipette and incubated at 37° C. for 24 h to produce a spherical implant, as an example. […] Of importance, but without being limited to any particular theory or mechanism of action, is the ratio of the polymer:solvent:drug that achieves high drug loading in a stable polymeric suspension formulation and which is correlated to the drug's saturation solubility in the solvent system.

[2] = published CAB population PK model, mean parameter; cited from earlier work
[3] = CAB MPT ISFI in vitro release studies; format: physicochemical; conditions: for in vitro release as single-drug ISFI versus co-formulated: CAB with either hormone, MPA or ENG with CAB (ENG up to 60 days)
Description: Drug release kinetics from various implant formulations was evaluated by incubating solid implants (25 mg±5 mg) into 200 mL of release medium under sink conditions (0.01 M PBS pH 7.4 with 2% solutol HS) at 37° C. for up to 6 months. Sample aliquots (1 mL) were collected at various time points and replaced with fresh release medium. The release medium was completely removed and replaced with fresh medium every week to maintain sink conditions. Drug concentration in the release samples was quantified by HPLC using the method described above. Cumulative drug release was calculated from the HPLC analysis and normalized to the total mass of drug in the implant. All experiments were performed in quadruplicate.
In vitro release of single-drug ISFIs vs. MPT ISFIs were evaluated to assess drug-drug interactions. All ISFI liquid suspensions were stable and homogenous, elicited <15% burst release, sustained release for 90 days, and above target release rates.

[4] = In vivo pharmacokinetics of MPT ISFI formulations; parameters: species or system mice
Description: FIGS. 18A to 18E. Drug concentrations in plasma of MPT ISFI formulations. Plasma concentrations of (FIG. 18A) DTG (278 mg/kg, 50 μL injection) when co-formulated with MPA or ENG (n=6-12/timepoint per group), (FIG. 18B) CAB (1215 mg/kg, 50 μL injection) when co-formulated with MPA or ENG (n=6-12/timepoint per group), (FIG. 18C) MPA (70-76 mg/kg, 50 μL injection) when co-formulated with DTG or CAB (n=6-12/timepoint per group), and (FIG. 18D) ENG (70-151 mg/kg, 50 μL injection) when co-formulated with DTG or CAB (n=6-12/timepoint per group). […] (FIG. 18E) R^2 values for mathematical models of zero-order, first-order, and diffusion-controlled (Higuchi) release.
Pharmacokinetic (PK) studies were carried out in mice over 90 days to assess in vivo drug release of MPT ISFI formulations. DTG, CAB, ENG, and MPA plasma concentrations were quantified using a high-performance liquid chromatography-tandem mass spectrometry LC/MS-MS method and were plotted over 90 days (FIG. 18).
Moreover, the release kinetics of DTG, CAB, MPA, and ENG were assessed against three mathematical models (zero-order, first-order, and diffusion-controlled (Higuchi) (Gouda, Baishya et al. 2017)).

[5] = system: HIV; conditions: protein-adjusted, cited from earlier work; for 4×PA-IC90: benchmark for protection
[6] = Drug saturation solubility studies; format: physicochemical; conditions: for solubility: 21 °C, thermodynamic from solid
Description: The saturation concentration of each drug in various solvents and/or solvent combinations was determined. Drugs were then formulated in ISFI formulations containing 1:1, 1:1.5, 1:2, or 1:4 w/w ratios of PLGA/solvent, as exemplary starting points. For example, for DTG, 25 mg of DTG was added to individual vials containing 100 mg of solvent or PLGA/N-MP placebo ISFI solution. The mixture was mixed thoroughly using a vortex with short-warming for several cycles, and stirred at room temperature (RT), e.g. about 20-22° C., for about 24-48 h. Samples were subsequently centrifuged for 30 min at 13,000 rpm (Eppendorf Centrifuge 5417C, USA) to remove excess undissolved drug. Sample aliquots (1 mg, n=4) were collected from the saturated supernatant and diluted with acetonitrile (ACN). Drug concentration in the saturated aliquots was determined by HPLC analysis.
A reverse-phase HPLC analysis was carried out with a Finnigan Surveyor HPLC system (Thermo Finnigan, San Jose, California, USA) with a Photodiode Array (PDA) Plus Detector, auto-sampler, and LC Pump Plus. The stationary phase utilized for the analysis was a Inertsil ODS-3 column (4 μm, 4.6 Å˜150 mm, [GL Sciences, Torrance, CA]) maintained at 40° C. Chromatographic separation was achieved by gradient elution using a mobile phase consisting of 0.1% trifluoroacetic acid in water and ACN (H2O/ACN 95:5 v/v). The flow rate was 1.0 mL/min and the total run time was 25 min for each 25 μL injection.

[7] = Suspension stability studies; format: physicochemical; conditions: polymer:solvent 1:2
Description: Eight (8) formulations were prepared and evaluated for stability. The formulations were placed in a water bath at 37° C. with shaking overnight and then vortexed for about 2 min upon removal. Sample aliquots (about 1 mg, n=4) were collected from each formulation and analyzed by HPLC to determine drug homogeneity distribution within the formulation. All suspension formulations were reevaluated for homogeneity after at least 24 h storage at room temperature (RT) to determine stability of suspensions at RT.

[8] = In vitro release of chemotherapeutic ISFIs; format: physicochemical
Description: ISFI formulations were prepared with two different chemotherapeutic drugs, paclitaxel (PTX) and gemcitabine (Gem) and investigated for in vitro release kinetics (PTX and Gem ISFIs; FIGS. 21A-21C and 22A-22B) and for in vivo safety and pharmacokinetics (PTX ISFI; FIG. 23).

[9] = DMSO, organic solvent or mixture, solvent DMSO
[10] = 167 mg/g in 6:1 w/w PLA (10 kDa):Pluronic L61, NMP
[11] = 200 mg/g in 9:1 w/w PLA (10 kDa):Pluronic L61, NMP

suspension formation when loaded above saturation concentration in PLGA/solvent placebo [1]: did not form successful suspensions
Compound: Nc1ccn([C@@H]2CS[C@H](CO)O2)c(=O)n1 [3TC, lamuvidine]

Compound: C[C@H]1CO[C@@H]2Cn3cc(C(=O)NCc4ccc(F)cc4F)c(=O)c(O)c3C(=O)N12 [CAB, Cabotegravir]
CL [2]: 151 mL/h
Q [2]: 507 mL/h
V2 [2]: 5270 mL
V3 [2]: 2430 mL
in vitro release as single-drug ISFI versus co-formulated [3]: comparable (p>0.05)
plasma concentrations when co-formulated with either hormone (MPA or ENG) ([4]; mouse, in vivo): no difference (p>0.05)
suspension formation when loaded above saturation concentration in PLGA/solvent placebo [1]: formed stable syringeable formulations
depot formation when injected into aqueous release medium [1]: formation of stable depots
4×PA-IC90 [5]: 0.664 µg/mL
1×PA-IC90 [5]: 0.166 µg/mL
solubility ([6]; (NMP:DMSO 1:1 w/w):Tween 20 (9:1 w/w), organic solvent or mixture, solvent (NMP:DMSO 1:1 w/w):Tween 20 (9:1 w/w)): 107 ± 3.05 mg/mL
solubility [6, 9]: 38 mg/mL
solubility ([6]; NMP:DMSO (2:8 w/w), organic solvent or mixture, solvent NMP:DMSO (2:8 w/w)): 52.2 ± 6.39 mg/mL
solubility ([6]; NMP:DMSO (9:1 w/w), organic solvent or mixture, solvent NMP:DMSO (9:1 w/w)): 144 ± 1.99 mg/mL
solubility ([6]; NMP:Gelucire 44/14 (9:1 w/w), organic solvent or mixture, solvent NMP:Gelucire 44/14 (9:1 w/w)): 134 ± 3.81 mg/mL
solubility ([6]; NMP:HP-b-CD (6:4 w/w), organic solvent or mixture, solvent NMP:HP-b-CD (6:4 w/w)): 89.6 ± 5.49 mg/mL
solubility ([6]; NMP:HP-b-CD (9:1 w/w), organic solvent or mixture, solvent NMP:HP-b-CD (9:1 w/w)): 158.2 ± 1.12 mg/mL
solubility ([6]; NMP:b-CD (6:4 w/w), organic solvent or mixture, solvent NMP:b-CD (6:4 w/w)): 81.8 ± 2.35 mg/mL
solubility ([6]; PBS, aqueous buffer, solvent PBS): 0.014 ± 0.001 mg/mL
Saturation Solubility ([6]; solvent DMSO): 38.0 mg/mL
Saturation Solubility ([6]; solvent NMP): 131.7 ± 3.66 mg/mL
Saturation Solubility ([6]; solvent NMP:DMSO (1:1 w/w)): 167.12 ± 12.04 mg/mL
Saturation Solubility ([6]; solvent PBS + 2% Solutol): 0.06 ± 0.002 mg/mL

Compound: C[C@H]1CO[C@@H]2Cn3cc(C(=O)NCc4ccc(F)cc4F)c(=O)c(O)c3C(=O)N12 [CAB—Na salt, Cabotegravir sodium]
Saturation Solubility ([6]; solvent DMSO): 31.6 ± 0.96 mg/mL
Saturation Solubility ([6]; solvent NMP): 47.5 ± 1.72 mg/mL
Saturation Solubility ([6]; solvent NMP:DMSO (1:1 w/w)): 49.1 ± 1.2 mg/mL
Saturation Solubility ([6]; solvent PBS + 2% Solutol): 1.83 ± 0.7 mg/mL

Compound: C[C@@H]1CCO[C@H]2Cn3cc(C(=O)NCc4ccc(F)cc4F)c(=O)c(O)c3C(=O)N12 [DTG, Dolutegravir]
plasma concentrations when co-formulated with either hormone (MPA or ENG) ([4]; mouse, in vivo): no difference (p>0.05)
suspension formation when loaded above saturation concentration in PLGA/solvent placebo [1]: formed stable syringeable formulations
depot formation when injected into aqueous release medium [1]: formation of stable depots
4×PA-IC90 [5]: 0.256 µg/mL
1×PA-IC90 [5]: 0.064 µg/mL
solubility [6, 9]: 55 ± 4.5 mg/mL
solubility ([6]; NMP, organic solvent or mixture, solvent NMP): 269 ± 7.25 mg/mL
solubility ([6]; NMP:DMSO (1:1 w/w), organic solvent or mixture, solvent NMP:DMSO (1:1 w/w)): 229.3 ± 1.6 mg/mL
Saturation Solubility ([6]; solvent PBS + 2% Solutol): 0.56 ± 0.004 mg/mL

suspension formation when loaded above saturation concentration in PLGA/solvent placebo [1]: did not form successful suspensions
depot formation when injected into aqueous release medium [1]: did not form a stable spherical depot
24 h-Burst [7, 10]: 64%
Depot Forming [7, 10]: YES
24 h-Burst [7, 11]: 58%
Depot Forming [7, 11]: YES
Compound: C#C[C@]1(CO)O[C@@H](n2cnc3c(N)nc(F)nc32)C[C@@H]1O [EFdA, Islatravir]

in vitro release as single-drug ISFI versus co-formulated [3]: no difference (p>0.05)
in vitro release as single-drug ISFI versus co-formulated with CAB ([3]; beyond 60 days): significantly different (p<0.05)
plasma concentrations over the study ([4]; mouse, in vivo): maintained during the 90-day study
Compound: C#C[C@]1(O)CC[C@H]2[C@@H]3CCC4=CC(=O)CC[C@@H]4[C@H]3C(=C)C[C@@]21CC [ENG, entonogestrel]

in vitro release from ISFI [8]: exhibited sustained release in vitro
Compound: Nc1ccn([C@@H]2O[C@H](CO)[C@@H](O)C2(F)F)c(=O)n1 [Gem, gemcitabine]

Compound: CC(=O)O[C@]1(C(C)=O)CC[C@H]2[C@@H]3C[C@H](C)C4=CC(=O)CC[C@]4(C)[C@H]3CC[C@@]21C [MPA, medroxyprogesterone acetate]
in vitro release as single-drug ISFI versus co-formulated [3]: difference (p<0.05)
best-fit model of in vivo release ([4]; MPT ISFIs, 90-day PK): zero-order release model
plasma concentrations over the study ([4]; in MPT ISFIs, 90-day study): maintained during the 90-day study
solubility ([6]; organic solvent or mixture, solvent NMP:DMSO (1:1 w/w)): 33.6 ± 0.9 mg/mL

in vitro release from ISFI [8]: exhibited sustained release in vitro
burst release in 24 h ([8]; ISFI): < 2%
sustained release duration ([8]; ISFI): > 60 days
Compound: CC(=O)O[C@H]1C(=O)[C@@]2(C)[C@H]([C@H](OC(=O)c3ccccc3)[C@]3(O)C[C@H](OC(=O)[C@H](O)[C@@H](NC(=O)c4ccccc4)c4ccccc4)C(C)=C1C3(C)C)[C@]1(OC(C)=O)CO[C@@H]1C[C@@H]2O [PTX, paclitaxel]
